Two compounds from patent publication US20250034211A1, “C-TERMINAL EXTENDED P53 ACTIVATOR CROSSLINKED PEPTIDOMIMETIC MACROCYCLES AGAINST MDM2/MDMX” (Merck Sharp & Dohme LLC, priority 2021, published 2025) can be followed below.

Structures are written as SMILES. In brackets after ≈: the same amount, converted by molar mass. Where two headings read alike, the source gives them in different places. Where a SMILES comes first, the peptide text is derived from it. Bridges are numbered along the chain shown (N, C = ends). [ ]: non-standard residue; d: D form. Lys(N3) = [N-]=[N+]=NCCCC[C@H](N)C(=O)O; R8 = C=CCCCCCC[C@@](C)(N)C(=O)O; Cba = N[C@@H](CC1CCC1)C(=O)O; S5 = C=CCCC[C@](C)(N)C(=O)O; βAla = NCCC(=O)O

What is called Kd is a measure of binding affinity in units of concentration. The term logD denotes lipophilicity at a set pH, counting ionised and neutral species. Read a high logD as higher lipophilicity. The term solubility denotes the dissolved amount per volume that the medium holds. Low readings indicate a poorly soluble substance, high ones a readily soluble substance.

Data set [1] addresses T1, MDM2 (1-125; SEQ ID NO 14) (Homo sapiens, UniProt Q00987).
T1 construct: GST (N); His6 (internal); TEV cleavage site ENLYFQG (internal); made in house; host or cells: E. coli BL21 (DE3) Rosetta T1R
The data set can be described thus: MDM2 binding assay (fluorescence anisotropy competition, FP). The method, then:
[P] is the protein concentration (MDM2), [L] is the labeled peptide concentration, r is the anisotropy measured, r0 is the anisotropy of the free peptide, rb is the anisotropy of the MDM2-FAM-labeled peptide complex, Kd is the dissociation constant, [L]t is the total FAM labeled peptide concentration, and [P]t is the total MDM2 concentration. […] The competing molecules were then titrated against the complex of the FAM-labeled peptide and protein. Apparent Kd values were determined by fitting the experimental data to the equations shown below:
[L]st and [L]t denote labeled ligand and total unlabeled ligand input concentrations, respectively. Kd2 is the dissociation constant of the interaction between the unlabeled ligand and the protein. In all competition experiments, it is assumed that [P]t>[L]st, otherwise considerable amounts of free labeled ligand would always be present and would interfere with measurements. […] The FAM-labeled peptide was dissolved in dimethyl sulfoxide (DMSO) at 1 mM and diluted into experimental buffer. Readings were carried out with an Envision Multilabel Reader (PerkinElmer). […] All titrations were carried out in triplicate. Curve-fitting was carried out using Prism 4.0 (GraphPad). […] Negative control titrations of the ligands under investigation were also carried out with the fluorescently labeled peptide (in the absence of MDM2) to ensure no interactions were occurring between the ligands and the FAM-labeled peptide.

For the next data set, the system named is HCT116 cells. Nature of the data set: Lactate dehydrogenase release assay (LDH). Format: cell-based. The method, then:
HCT116 cells were seeded into a 384-well plate at a density of 8000 cells per well. Cells were maintained in McCoy's 5A Medium with 10% fetal bovine serum (FBS), Blasticidin and Penicillin/Streptomycin. The cells were incubated overnight followed by the removal of cell media and the addition of Opti-MEM Medium without FBS. Cells were then treated with peptides for 4/16 hours in Opti-MEM either in 10% FBS or serum free. Final concentration of DMSO was 0.5%. Lactate dehydrogenase release was detected using CytoTox-ONE Homogenous Membrane Integrity Assay Kit (Promega) as per manufacturer's instructions. Measurements were carried out using Tecan plate reader. Maximum LDH release was defined as the amount of LDH released induced by the lytic peptide (iDNA79) and used to normalize the results.

Data set [2] relates to Jump-In T-REx CHO-K1 BLA cells. The data set can be described thus: Tetracycline beta-lactamase reporter gene assay (counter screen). It counts as cell-based. As to the method:
Based on Jump-In™ T-REx™ CHO-K1 BLA cells and contain a stably integrated β-lactamase under the control of an inducible CMV promoter. Cells were seeded into a 384-well plate a density of 4000 cells per well. Cells were maintained in Dulbecco's Minimal Eagle Medium (DMEM) with 10% fetal bovine serum (FBS), Blasticidin and Penicillin/Streptomycin. The cells were incubated for 24 hours, followed by cell media removal and replacement with Opti-MEM either containing 10% FBS or 0% FBS. Peptides were then dispensed to each well using a liquid handler, ECHO 555 and incubated for 4/16 hours. Final working concentration of DMSO was 0.5%. β-Lactamase activity was detected using the ToxBLAzer Dual Screen (Invitrogen) as per manufacturer's instructions. Measurements were carried out using Envision multiplate reader (Perkin Elmer). Counter Screen activity was defined as the amount of 0-lactamase activity induced by tetracycline.
On the technique in general: A reporter such as luciferase makes a cellular process visible.

A short description of data set [3]: Circular dichroism (CD) helicity. Format: physicochemical. The method, then: The dried peptide was reconstituted in a buffer containing 1 mM HEPES pH 7.4 and 5% methanol to a concentration of 1 mM. The peptide sample was placed in a quartz cuvette with a path length of 0.2 cm and a CD spectrum was recorded from 300 to 190 nm at 25° C. using the Chirascan-plus qCD machine (Applied Photophysics). The actual concentration of the peptide was determined by the absorbance of the peptide at […]. An estimate of the secondary structure components of the peptide was carried out by converting the CD spectrum to mean residue ellipticity before deconvoluting using the CDNN software (distributed by Applied Photophysics). All experiments were done in duplicate.
Background: Circular dichroism is the unequal absorption of left and right circularly polarised light.

The subject of another data set is p53 null Ca Ski. Conditions: 72 h, 10% serum.
A further data set in a line: Solubility (PBS, pH 7). The conditions noted are these: PBS, pH 7.
Data set [4] concerns p53 (HCT116 cells stably transfected with a p53 responsive β-lactamase reporter). Nature of the data set: p53 beta-lactamase reporter gene cellular functional assay. Format: cell-based. The method, then: HCT116 cells were stably transfected with a p53 responsive β-lactamase reporter, and were seeded into a 384-well plate at a density of 8,000 cells per well. Cells were maintained in McCoy's 5A Medium with 10% fetal bovine serum ([…]), Blasticidin and Penicillin/Streptomycin. The cells were incubated overnight and followed by removal of cell growth media and replaced with Opti-MEM either containing 0% FBS or 10% FBS. Peptides were then dispensed to each well using a liquid handler, ECHO 555 and incubated for 4/16 hours. Final working concentration of dimethyl sulfoxide (DMSO) was 0.5%. β-Lactamase activity was detected using the ToxBLAzer Dual Screen (Invitrogen) as per manufacturer's instructions. Measurements were done using Envision multiplate reader (Perkin-Elmer). Maximum p53 activity was defined as the amount of β-lactamase activity induced by 50 μM azide-ATSP-7041 (stapled p53 peptide; Aileron Therapeutics, Inc.). This was determined as the highest amount of p53 activity induced by azide-ATSP-7041 by titration on HCT116 cells.

[5] abbreviates: read-out: cellular efficacy in cell proliferation HTC116 p53 positive control cell lines.

T1 sequence (Q00987 with tags, fused parts or gaps): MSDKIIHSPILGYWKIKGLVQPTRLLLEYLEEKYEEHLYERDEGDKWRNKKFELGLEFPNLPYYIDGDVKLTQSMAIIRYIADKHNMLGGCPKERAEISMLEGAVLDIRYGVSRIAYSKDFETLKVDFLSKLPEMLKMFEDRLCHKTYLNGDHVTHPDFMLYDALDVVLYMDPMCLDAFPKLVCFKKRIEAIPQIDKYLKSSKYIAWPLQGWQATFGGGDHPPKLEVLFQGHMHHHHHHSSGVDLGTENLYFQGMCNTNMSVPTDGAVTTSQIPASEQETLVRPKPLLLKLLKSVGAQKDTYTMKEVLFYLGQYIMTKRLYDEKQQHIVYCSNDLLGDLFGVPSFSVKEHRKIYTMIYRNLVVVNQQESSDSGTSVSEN

For the compound `CC(=O)N[C@@H](CCCCN=[N+]=[N-])C(=O)NCCC(=O)N[C@@H](CC(C)C)C(=O)N[C@H](C(=O)N[C@@H](Cc1ccccc1)C(=O)N[C@]1(C)CCCCCCC=CCCC[C@@](C)(C(=O)N[C@@H](C)C(=O)N[C@@H](C)C(=O)N[C@@H](C)C(=O)N[C@@H](C)C(=O)N[C@@H](C)C(=O)N[C@H](C)C(N)=O)NC(=O)[C@H](CC2CCC2)NC(=O)[C@H](CCC(N)=O)NC(=O)[C@H](C)NC(=O)[C@H](Cc2c[nH]c3ccccc23)NC(=O)[C@H](Cc2ccc(O)cc2)NC(=O)[C@H](CCC(=O)O)NC1=O)[C@@H](C)O` [Macrocycle 3, Ac-K(N3)-betaAla-L-T-F-X1a-E-Y-W-A-Q-Cba-X2a-AAAAA-(D-Ala)-NH2(olefinstaple from X1ato X2a)] (Ac-[Lys(N3)][βAla]LTF[R8]EYWAQ[Cba][S5]AAAAA[dA]-NH2; staple 6-13), in data set [1], the Kd stood at 31 nM. The EC50 in the data set with HCT116 cells (0% FBS, 4 h) was greater than 50000 nM; with HCT116 cells (10% FBS, 16 h) it was greater than 50000 nM; in [2] (0% FBS, 4 h), greater than 50000 nM; in data set [2] (10% FBS, 16 h), greater than 50000 nM; with HCT116 (setting [5]), 420 nM. For the same compound, in data set [3], the “CD (% helicity)” value amounted to 47%. The “HCT116 proliferation % Max” value in the data set on HCT116 (72 h, 10% serum) is 71%. For the same compound, in the data set on p53 null Ca Ski, the “p53 null Ca Ski proliferation % Max” value came out at 10%. The compound also had a pH-dependent lipophilicity (logD) in the data set “HPLC LogD” of 3.15. The compound further came in with a solubility in “Solubility (PBS, pH 7)” of 157 µM (≈ 340 µg/mL).

In turn, `CC(=O)N[C@@H](CCCCN=[N+]=[N-])C(=O)NCCC(=O)N[C@@H](CC(C)C)C(=O)N[C@H](C(=O)N[C@@H](Cc1ccccc1)C(=O)N[C@]1(C)CCCCCCC=CCCC[C@@](C)(C(=O)N[C@@H](C)C(=O)N[C@@H](C)C(=O)N[C@@H](Cc2ccccc2)C(=O)N[C@@H](C)C(=O)N[C@@H](C)C(=O)N[C@@H](Cc2ccccc2)C(N)=O)NC(=O)[C@H](CC2CCC2)NC(=O)[C@H](CCC(N)=O)NC(=O)[C@H](C)NC(=O)[C@H](Cc2c[nH]c3ccccc23)NC(=O)[C@H](Cc2ccc(O)cc2)NC(=O)[C@H](CCC(=O)O)NC1=O)[C@@H](C)O` [Macrocycle 4, Ac-K(N3)-betaAla-L-T-F-X1a-E-Y-W-A-Q-Cba-X2a-AAFAAF-NH2 (olefin staple from X1a to X2a)] (Ac-[Lys(N3)][βAla]LTF[R8]EYWAQ[Cba][S5]AAFAAF-NH2; staple 6-13) displayed a Kd in [1] of 27 nM. The EC50 was 36 nM in [4] (0% serum at 4 hours); 237 nM in data set [4] (10% serum at 16 hours); greater than 50000 nM in the data set on HCT116 cells (0% FBS, 4 h); greater than 50000 nM in the data set with HCT116 cells (10% FBS, 16 h); 34500 nM in [2] (0% FBS, 4 h); greater than 50000 nM in data set [2] (10% FBS, 16 h). In addition, the EC50 with HCT116 (read-out: HCT116 proliferation EC50, 72 h, 10% serum) was 1210 nM; in the data set with HCT116 (setting [5]) it was 1220 nM. In addition, the “CD (% helicity)” value in data set [3] is on record as 45%. In addition, the “HCT116 proliferation % Max” value with HCT116 (72 h, 10% serum) came to 68%.
